The values that follow come from paper PMC5384001 (Scientific Reports, 2017).

SMILES strings stand for the structures.

For this test, the target named is T1, GluD2-Lc(D542Y)-(HS2)GluN1 (Rattus norvegicus, UniProt Q63226, A654T/A766F/D542Y/D767R/N763E/R768S/T764L/V761T/V765F).
T1 construct: the function of full-length receptors as well, we introduced them into the GluD2 lurcher mutant (GluD2-Lc); expressed in transfected cells; host or cells: Xenopus laevis oocytes injected with cRNA
T1 sequence (Q63226 24-1007 D542Y/A654T/V761T/N763E/T764L/V765F/A766F/D767R/R768S): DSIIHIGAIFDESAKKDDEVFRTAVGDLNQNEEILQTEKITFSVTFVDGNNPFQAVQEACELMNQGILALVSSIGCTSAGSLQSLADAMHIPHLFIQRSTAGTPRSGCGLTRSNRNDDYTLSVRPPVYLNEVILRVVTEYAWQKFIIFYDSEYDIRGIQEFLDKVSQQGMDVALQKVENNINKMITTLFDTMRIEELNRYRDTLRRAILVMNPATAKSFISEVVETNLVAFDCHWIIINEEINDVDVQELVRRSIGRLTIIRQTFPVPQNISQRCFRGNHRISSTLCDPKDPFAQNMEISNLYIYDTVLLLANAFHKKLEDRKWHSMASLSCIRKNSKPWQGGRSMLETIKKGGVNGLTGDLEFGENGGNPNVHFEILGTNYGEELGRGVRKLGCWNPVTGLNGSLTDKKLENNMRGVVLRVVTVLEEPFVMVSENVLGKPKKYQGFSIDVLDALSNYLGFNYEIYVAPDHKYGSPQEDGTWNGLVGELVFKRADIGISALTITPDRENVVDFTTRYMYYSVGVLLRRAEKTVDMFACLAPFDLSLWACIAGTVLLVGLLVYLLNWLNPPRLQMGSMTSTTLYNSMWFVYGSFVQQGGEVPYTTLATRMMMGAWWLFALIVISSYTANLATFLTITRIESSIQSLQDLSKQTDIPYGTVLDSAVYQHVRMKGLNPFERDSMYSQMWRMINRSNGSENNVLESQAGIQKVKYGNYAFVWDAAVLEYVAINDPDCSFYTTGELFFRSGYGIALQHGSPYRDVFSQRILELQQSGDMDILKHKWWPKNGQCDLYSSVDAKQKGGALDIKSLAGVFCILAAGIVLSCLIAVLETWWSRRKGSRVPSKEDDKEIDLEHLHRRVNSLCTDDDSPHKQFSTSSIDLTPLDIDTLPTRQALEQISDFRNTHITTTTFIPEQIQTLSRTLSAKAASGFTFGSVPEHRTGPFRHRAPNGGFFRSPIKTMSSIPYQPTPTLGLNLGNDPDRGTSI
Description: Two-electrode voltage clamp in Xenopus oocytes, inhibition of spontaneous currents. Format: cell-based. The source says: All cDNAs for expression in Xenopus oocytes were cloned into the vector pSGEM[30]. Point mutants of GluD2-Lc were constructed by overlap extension PCR with mutagenic oligonucleotide primers. The GluD2-Lc-(H)GluN1 chimera was constructed by transferring the S1- and S2-encoding sequences from GluD2-LBD-(H)GluN1 to GluD2-Lc via overlap extension PCR using tail primers. The S1 and S2 sequences were transferred separately, yielding GluD2-Lc-(HS1)GluN1 and GluD2-Lc-(HS2)GluN1 constructs. GluD2-Lc-(H)GluN1 was then produced from these by another overlap extension PCR. Complementary RNA (cRNA) for injection into oocytes was synthesised from 1 μg of linearised template DNA with the mMESSAGE mMACHINE in vitro transcription kit (Ambion, Austin, TX, USA).
Oocytes were obtained by surgically removing parts of the ovaries from Xenopus laevis (Nasco, Fort Atkinson, WI, USA) anaesthetised with 1.5 g/L 3-aminobenzoic acid ethylester (Sigma, Taufkirchen, Germany). The ovary clippings were digested with 784 U/mL (4 mg/mL) collagenase type I (Worthington, Lakewood, NJ, USA) in Ca^2+-free Barth’s solution (88 mM NaCl, 1.1 mM KCl, 2.4 mM NaHCO3, 0.8 mM MgSO4, 15 mM HEPES-NaOH, pH 7.6) with gentle agitation for 1.5–2 h at 20 °C to remove the follicular cell layer. After stopping the collagenase digestion by washing with Barth’s solution (88 mM NaCl, 1.1 mM KCl, 2.4 mM NaHCO3, 0.3 mM Ca(NO3)2, 0.4 mM CaCl2, 0.8 mM MgSO4, 15 mM HEPES-NaOH, pH 7.6), defolliculated oocytes of stages V and VI were selected and maintained at 16 °C in Barth’s solution supplemented with 100 μg/mL gentamicin, 40 μg/mL streptomycin, and 63 μg/mL penicillin. Oocytes were injected with 11 ng cRNA (10 ng of each cRNA for co-expression of GluN1 and GluN2A) using a nanoliter injector (WPI, Sarasota, FL, USA). Four days after cRNA injection, current responses were recorded under voltage clamp at –70 mV with a Turbo Tec-10CD amplifier (npi electronic, Tamm, Germany) controlled by Patchmaster software (HEKA, Lambrecht, Germany). Currents were filtered with a 20 Hz low-pass filter and then digitised with a sampling rate of 50 Hz. Recording electrodes were pulled from borosilicate glass (Hilgenberg, Malsfeld, Germany) with an L/M-3P-A vertical pipette puller (List-Medical), filled with 3 M KCl, and had resistances of 0.5–5 MΩ (voltage electrode) or 0.5–1.5 MΩ (current electrode). Recordings were performed in a 50 μL chamber under constant superfusion with extracellular solution at a flow rate of 3–5 mL/min. […] Finally, Ba-NFR and then NMDGR were applied again to check for reversibility.

Turning to `N[C@H](CO)C(=O)O` [D-serine], for the setting “fraction of spontaneous current inhibited by D-serine”, the “D-serine efficacy Mean ± SEM” value is on record as “–3.4 ± 0.5%”. Moreover, the “sensitivity to D-serine” value (inhibition of spontaneous currents) is reported as “insensitive”.
